Results: patent publication US20230414593A1, “EZH2 INHIBITION THERAPIES FOR THE TREATMENT OF ANDROGEN RECEPTOR MUTATED PROSTATE CANCERS” (Constellation Pharmaceuticals, Inc, priority 2020, published 2023)

Tested on: LNCaP-FGC tumor cells
Assay: Tumor growth inhibition in prostate cancer LNCaP model with AR mutation H875Y
Assay type: in vivo, mouse
Conditions: 75 mg/kg orally once daily, LNCaP-FGC subcutaneous tumors, Cmp. 1 compared with Cmp. 2, FIG. 2
Description: (R)-7-chloro-2-((1r,4R)-4-(3-methoxyazetidin-1-yl)cyclohexyl)-2,4-dimethyl-N-((6-methyl-4-(methylthio)-2-oxo-1,2-dihydropyridin-3-yl)methyl)benzo[d][1,3]dioxole-5-carboxamide and R—N-((4-methoxy-6-methyl-2-oxo-1,2-dihydropyridin-3-yl)methyl)-2-methyl-1-(1-(1-(2,2,2-trifluoroethyl)piperidin-4-yl)ethyl)-1H-indole-3-carboxamide were examined in a prostate cancer LNCaP Model with AR mutation H875Y.
A fixed dose of 75 mg/kg was used for both compounds. Each mouse was inoculated subcutaneously at the right flank with LNCaP-FGC tumor cells (10×10^6) in 0.1 ml of PBS mixed with RPMI-1640:Matrigel (50:50) for tumor development. The treatments started when the average tumor volume reached approximately 158 mm^3. The test articles were administered orally once daily. The tumor size was used for the calculation of tumor growth inhibition (TGI)=[1−(T1−T0)/(C1−C0)]×100, where C1=mean tumor volume of control mice at time t, T1=mean tumor volume of treated mice at time t, C0=mean tumor volume of control mice at time 0, and T0=mean tumor volume of treated mice at time 0].

COC1CN([C@H]2CC[C@H]([C@@]3(C)Oc4c(Cl)cc(C(=O)NCc5c(SC)cc(C)[nH]c5=O)c(C)c4O3)CC2)C1 [Cmp. 1, (R)-7-chloro-2-((1r,4R)-4-(3-methoxyazetidin-1-yl)cyclohexyl)-2,4-dimethyl-N-((6-methyl-4-(methylthio)-2-oxo-1,2-dihydropyridin-3-yl)methyl)benzo[d][1,3]dioxole-5-carboxamide]
tumor growth inhibition (TGI), relative tumor volume % reduction: more efficacious at tumor growth inhibition | tumor growth inhibition (TGI), relative tumor volume % reduction (listed as (R)-7-chloro-2-(1r,4R)-4-(3-methoxyazetidin-1-yl)cyclohexyl)-2,4-dimethyl-N-((6)): more efficacious
